Patent US20230200390A1, “SELECTIVE HERBICIDES BASED ON SUBSTITUTED ISOXAZOLIN CARBOXAMIDES AND MEFENPYR-DIETHYL” (BAYER AKTIENGESELLSCHAFT, priority 2020, published 2023)

Assays:
Type in all cases: in vivo
[1] = system: spring wheat, TRZAS Triso; experiment: Tank-mix; post-emergence: crop damage by herbicide with/without safener mefenpyr-diethyl
Procedure: (§1) Seeds of crops (spring wheat, TRZAS; spring barley, HORVS; maize, ZEAMA) were placed in sandy loam soil in peat pots, covered with soil and cultivated in a greenhouse under good growth conditions. Two to three weeks after sowing, the test plants were treated at the 1 to 3-leaf stage. The herbicide/safener active compound combinations according to the invention, formulated as wettable powders or emulsion concentrates, and, in parallel tests, the correspondingly formulated individual active compounds were sprayed onto the green parts of the plants in various dosages using an amount of water of 300 l/ha (converted).
(§2) The pots were returned under good growing conditions in a glasshouse and a visual assessment of herbicidal effects was made at intervals from 1 to 3 weeks after herbicide application (DAT=days after treatment). Assessment was on a percentage basis in comparison with untreated control plants (0%=no injury, 100%=complete kill).

[2] = system: spring barley, HORVS Montoya; experiment: Seed treatment with safener; post-emergence herbicide, crop damage; settings: for HER effect + SAF / Reduction [%] / Reduction [Difference]: mefenpyr-diethyl 0.5 g a.i./kg seed
Description: (§3) For safener seed treatment trials, sufficient seed amounts of the respective crops (spring wheat (TRZAS); spring barley (HORVS)) were weighed into screw cap glass bottles with a minimum volume trice of the seeds.
(§4) As a first step, specified safeners formulated as wettable powder (WP) or wettable granules (WG) were weighed out for the required dosages (g a.i./kg seed), corresponding to the seed amounts. The safener amounts were mixed with a coloured slurry blind formulation type, prediluted with milk at 3.5% fat rate (25 mgs slurry formulation plus 2 ml milk per 10 grams of seed). A tube roller was used for coating. The solutions were gradually pipetted each on the rotating seeds followed by coating for min. 3 hours until all liquid had been soaked up by the seeds. Thereafter, the coated seeds were put flat on open trays for drying over night at room temperature.
(§5) Treated seeds were then placed into pots (7 cm diameter) on the surface of sandy loam, pressed down, flat covered with additional soil and finally covered with sandy soil, also pressed down, watered, and kept under good growth conditions in a greenhouse, until the plants had reached 2-leaf-stage (BBCH 12).
(§6) At that stage, post-emergence application of the specified herbicides was done on:
(§7) a) pot sets containing plants with safener-coated seeds as described above,
(§8) b) as a reference, pot sets of plants without seed treatment.
(§9) The herbicides were formulated as wettable powder (WP). Equivalent to the spray area, compound amounts were weighed out and diluted related to the water application rate (300 l/ha) to an aqueous suspension plus additive (1 l/ha MERO). Dosage related equivalents were conventionally sprayed on trays with the potted plants.
(§10) After application, the test plants were kept under good growth conditions in a greenhouse.
(§11) Assessment timings were 10 and 21 days after treatment (DAT) with the herbicide, by visual scoring of the crop damage in % (comparison of untreated with treated plants, either sprayed only with herbicide or with herbicide on plants with treated seeds).

[3] = system: spring wheat, TRZAS Triso; experiment: as above; settings: for HER effect + SAF [%] (crop damage) / Reduction [%] / Reduction [Difference]: mefenpyr-diethyl 0.5 g a.i./kg seed; for HER effect [%] (crop damage, herbicide without safener): no safener
Description: as §3, §4, §5, §6, §7, §8, §9, §10, §11

[4] = system: spring barley, HORVS Montoya; experiment: Tank-mix; post-emergence: crop damage by herbicide with/without safener mefenpyr-diethyl; settings: 10 DAT
Procedure: as §1, §2

[5] = HER 2 g a.i./ha + mefenpyr-diethyl 50 g a.i./ha, 21 DAT
[6] = HER 8 g a.i./ha + mefenpyr-diethyl 50 g a.i./ha, 21 DAT
[7] = HER 8 g a.i./ha post-emergence, 21 DAT
[8] = HER 32 g a.i./ha post-emergence, 21 DAT
[9] = HER 8 g a.i./ha + mefenpyr-diethyl 50 g a.i./ha
[10] = HER 32 g a.i./ha + mefenpyr-diethyl 100 g a.i./ha
[11] = HER 32 g a.i./ha post-emergence, 10 DAT
[12] = herbicide alone 32 g a.i./ha post-emergence, 10 DAT
[13] = HER 2 g a.i./ha + mefenpyr-diethyl 50 g a.i./ha
[14] = HER 8 g a.i./ha + mefenpyr-diethyl 100 g a.i./ha
[15] = HER 8 g a.i./ha + mefenpyr-diethyl 50 g a.i./ha, 10 DAT

`C=CC1(C(=O)NC2C=CC(C(=O)O)C2)CC(c2cc(F)cc(F)c2)=NO1` (stereo not drawn) [Example 1.58] was tested, and the “HER effect + SAF” value [1, 5] was 10%, the “Reduction [%]” value [1, 5] was 88% and the “Reduction [Difference]” value [1, 5] was 75. For the same molecule, the “HER effect + SAF” value [1, 6] was 40%, the “Reduction [%]” value [1, 6] was 57% and the “Reduction [Difference]” value [1, 6] was 53. For the same molecule, the HER effect ([1]; herbicide alone 2 g a.i./ha, 21 DAT) was 85%, the HER effect ([1]; herbicide alone 8 g a.i./ha, 21 DAT) was 93% and the “HER effect + SAF” value [2, 7] was 0%. For the same molecule, the “Reduction [%]” value [2, 7] was 100%, the “Reduction [Difference]” value [2, 7] was 95 and the “HER effect + SAF” value [2, 8] was 40%. The “Reduction [%]” value [2, 8] was 58%, the “Reduction [Difference]” value [2, 8] was 55 and the HER effect ([2]; herbicide alone 8 g a.i./ha post-emergence, 21 DAT) was 95%. For the same molecule, the HER effect ([2]; herbicide alone 32 g a.i./ha post-emergence, 21 DAT) was 95%, the “HER effect + SAF [%] (crop damage)” value ([3]; 21 DAT, HER dose 2 g a.i./ha) was 0% and the “Reduction [%]” value ([3]; 21 DAT, HER dose 2 g a.i./ha) was 100%. The “Reduction [Difference]” value ([3]; 21 DAT, HER dose 2 g a.i./ha) was 85, the “HER effect [%] (crop damage, herbicide without safener)” value ([3]; 21 DAT, HER dose 2 g a.i./ha) was 85% and the “HER effect + SAF [%] (crop damage)” value ([3]; 21 DAT, HER dose 8 g a.i./ha) was 0%. The “Reduction [%]” value ([3]; 21 DAT, HER dose 8 g a.i./ha) was 100%, the “Reduction [Difference]” value ([3]; 21 DAT, HER dose 8 g a.i./ha) was 93 and the “HER effect [%] (crop damage, herbicide without safener)” value ([3]; 21 DAT, HER dose 8 g a.i./ha) was 93%. For the same molecule, the “HER effect + SAF [%] (crop damage)” value ([3]; 21 DAT, HER dose 32 g a.i./ha) was 10%, the “Reduction [%]” value ([3]; 21 DAT, HER dose 32 g a.i./ha) was 89% and the “Reduction [Difference]” value ([3]; 21 DAT, HER dose 32 g a.i./ha) was 83. The “HER effect [%] (crop damage, herbicide without safener)” value ([3]; 21 DAT, HER dose 32 g a.i./ha) was 93%.
For `C=CCOC(=O)C1CC(NC(=O)C2(C=C)CC(c3cc(C)cc(F)c3)=NO2)CO1` (mixture of isomers) [Example 1.85], the “HER effect + SAF” value [4, 9] was 0%, the “Reduction [%]” value [4, 9] was 100% and the “Reduction [Difference]” value [4, 9] was 20. For the same molecule, the “HER effect + SAF” value [4, 10] was 20%, the “Reduction [%]” value [4, 10] was 75% and the “Reduction [Difference]” value [4, 10] was 60. The HER effect ([4]; herbicide alone 8 g a.i./ha) was 20%, the HER effect ([4]; herbicide alone 32 g a.i./ha) was 80% and the “HER effect + SAF” value [2, 11] was 30%. The “Reduction [%]” value [2, 11] was 63%, the “Reduction [Difference]” value [2, 11] was 50 and the HER effect [2, 12] was 80%.
In the case of `COCCOC(=O)C1C=CC(NC(=O)C2(C(F)(F)F)CC(c3cc(F)cc(C#N)c3)=NO2)C1` (stereo not drawn) [Example 1.2], the “HER effect + SAF” value [4, 13] is reported as 0%, the “Reduction [%]” value [4, 13] is reported as 100% and the “Reduction [Difference]” value [4, 13] is reported as 20. For the same molecule, the “HER effect + SAF” value [4, 14] was 0%, the “Reduction [%]” value [4, 14] was 100% and the “Reduction [Difference]” value [4, 14] was 30. The HER effect ([4]; herbicide alone 2 g a.i./ha) was 20%, the HER effect ([4]; herbicide alone 8 g a.i./ha) was 30% and the “HER effect + SAF” value [1, 15] was 50%. For the same molecule, the “Reduction [%]” value [1, 15] was 44%, the “Reduction [Difference]” value [1, 15] was 40 and the HER effect ([1]; herbicide alone 8 g a.i./ha, 10 DAT) was 90%. The “HER effect + SAF [%] (crop damage)” value ([3]; 10 DAT, HER dose 8 g a.i./ha) was 10%, the “Reduction [%]” value ([3]; 10 DAT, HER dose 8 g a.i./ha) was 89% and the “Reduction [Difference]” value ([3]; 10 DAT, HER dose 8 g a.i./ha) was 80. For the same molecule, the “HER effect [%] (crop damage, herbicide without safener)” value ([3]; 10 DAT, HER dose 8 g a.i./ha) was 90%, the “HER effect + SAF [%] (crop damage)” value ([3]; 10 DAT, HER dose 32 g a.i./ha) was 30% and the “Reduction [%]” value ([3]; 10 DAT, HER dose 32 g a.i./ha) was 67%. For the same molecule, the “Reduction [Difference]” value ([3]; 10 DAT, HER dose 32 g a.i./ha) was 60 and the “HER effect [%] (crop damage, herbicide without safener)” value ([3]; 10 DAT, HER dose 32 g a.i./ha) was 90%.
For `COC(=O)C1C=CC(NC(=O)C2(C(F)(F)F)CC(c3cccc(F)c3)=NO2)C1` (stereo not drawn) [Example 1.18], the “HER effect + SAF” value [4, 9] was 0%, the “Reduction [%]” value [4, 9] was 100% and the “Reduction [Difference]” value [4, 9] was 20. The “HER effect + SAF” value [4, 10] was 10%, the “Reduction [%]” value [4, 10] was 88% and the “Reduction [Difference]” value [4, 10] was 70. For the same molecule, the HER effect ([4]; herbicide alone 8 g a.i./ha) was 20%, the HER effect ([4]; herbicide alone 32 g a.i./ha) was 80% and the “HER effect + SAF” value [2, 11] was 20%. For the same molecule, the “Reduction [%]” value [2, 11] was 75%, the “Reduction [Difference]” value [2, 11] was 60 and the HER effect [2, 12] was 80%.
